The results in this text go back to ChEMBL document CHEMBL1144041, “Docking-based 3D-QSAR study for 11beta-HSD1 inhibitors” (Bioorg Med Chem Lett, 2008).

In this test the target is 11-beta-hydroxysteroid dehydrogenase 1 (Homo sapiens, UniProt P28845). Briefly: Inhibition of 11beta-HSD1.

Molecules are shown by their SMILES.

As a reminder, the IC50 is the concentration at which inhibition is half-maximal. Lower therefore signals greater potency.

11-beta-hydroxysteroid dehydrogenase 1, sequence (P28845 whole entry): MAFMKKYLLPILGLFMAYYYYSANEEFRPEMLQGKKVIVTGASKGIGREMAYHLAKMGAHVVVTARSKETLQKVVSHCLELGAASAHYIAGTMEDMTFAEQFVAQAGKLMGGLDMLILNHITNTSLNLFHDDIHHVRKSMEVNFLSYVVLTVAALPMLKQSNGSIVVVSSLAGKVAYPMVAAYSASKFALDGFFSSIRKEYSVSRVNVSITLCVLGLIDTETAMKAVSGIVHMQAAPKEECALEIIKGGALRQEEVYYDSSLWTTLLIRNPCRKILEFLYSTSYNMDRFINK

For `O=C(Cc1ccccc1)Nc1ccc(C(=O)N2CCC[C@H]3CCCC[C@@H]32)cc1`, it took 380 nM to reach half-maximal inhibition (IC50). In other words, the sub-micromolar range.
For the molecule `CC(C)(Oc1ccc(Cl)cc1)C(=O)N[C@H]1C2CC3CC1C[C@](Cc1nnn[nH]1)(C3)C2`, the IC50 was 40.7 nM.
To `CCCc1nnc(C23CC4CC(CC(C4)C2)C3)n1CC` belongs 52.5 nM; to `CC(C)(Oc1ccc(N2CCOCC2)cn1)C(=O)N[C@H]1C2CC3CC1C[C@](C(N)=O)(C3)C2`, 43.7 nM; to `CC(C)(Oc1ccc(C#N)cn1)C(=O)N[C@H]1C2COCC1C[C@H](C(N)=O)C2`, 11 nM.
To `CC1CCCCN1C(=O)c1ccc(NC(=O)c2ccc(Cl)cc2Cl)cc1` (stereo not drawn) belongs 7940 nM; to `O=C(c1ccc(C(=O)N2CCC[C@H]3CCCC[C@@H]32)cc1)N1CCCc2ccccc21`, 182 nM.
To `CC(C)(Oc1ccc(Cl)cc1)C(=O)N[C@H]1C2CCCC1C[C@H](C(N)=O)C2` belongs 21.9 nM; to `O=C(c1ccc(NCc2ccc(F)cc2)cc1)N1CCC[C@H]2CCCC[C@@H]21`, 50.1 nM.
In turn, `CNc1ccc(C(C)(C)C(=O)N[C@H]2C3CC4CC2C[C@](C(N)=O)(C4)C3)cn1` gave an IC50 of 28.8 nM.
Consider `CC(C)(Oc1ccc(C#N)cn1)C(=O)N[C@H]1C2CC3CC1C[C@](C(N)=O)(C3)C2`, for which inhibition was half-maximal at 28.2 nM (IC50).
For the molecule `CCC1CCCCN1C(=O)c1ccc(NC(=O)c2ccc(Cl)cc2Cl)cc1` (stereo not drawn), half-maximal inhibition (IC50) required 1070 nM.
The result for `Cn1c(-c2ccc(C=O)cc2Cl)nnc1C12CCC(c3nc(-c4ccc(F)cc4)no3)(CC1)CC2` reads 21.9 nM; that for `CC(C)(C(=O)N[C@H]1C2CC3CC1C[C@](C(N)=O)(C3)C2)c1ccc(C#N)cn1`, 14.1 nM.
With `CCCCn1c(C)nnc1C12CC3CC(CC(C3)C1)C2`, the IC50 is 72.4 nM. This IC50 lies about 5.1-fold higher than the previous one.
`CCCn1c(CC)nnc1C12CC3CC(CC(C3)C1)C2` gave an IC50 of 11 nM.
With `O=C(Nc1ccc(C(=O)N2CCC[C@H]3CCCC[C@@H]32)cc1)c1ccc(Cl)cc1`, the midpoint of inhibition, the IC50, lay at 1100 nM.
`CC(C)(Oc1ccc(-n2cccn2)cn1)C(=O)N[C@H]1C2CC3CC1C[C@](C(N)=O)(C3)C2` had an IC50 of 5.01 nM.
The molecule `CN1CCN(c2ccc(OC(C)(C)C(=O)N[C@H]3C4CC5CC3C[C@](C(N)=O)(C5)C4)nc2)CC1` had an IC50 of 186 nM.
To `CC(C)(C(=O)N[C@H]1C2CC3CC1C[C@](C(N)=O)(C3)C2)c1ccc(N2CCOCC2)nc1` belongs 46.8 nM.
The result for `CCCCCC12CCC(c3nnc4n3CCCCC4)(CC1)CC2` reads 5.01 nM; that for `O=C(Nc1cccc(C(=O)N2CCC[C@H]3CCCC[C@@H]32)c1)c1ccccc1`, 14.1 nM.
`O=C(Nc1ccc(C(=O)N2CCC[C@H]3CCCC[C@@H]32)cc1)c1ccccc1Cl`: the IC50 was 1580 nM.
